From patent US7691382B2, “Antiviral polypeptides comprising tandem repeats of APOE 141-149 and variants thereof” (priority 2003, dated 2010)
Peptide text beside a SMILES is read from it.

Key:
[1] = tested on: HSV1; type: cell-based, Human herpes simplex virus type 1; settings: for efficacy for reducing HSV1 infectivity (in words): Examples 2 and 3
In short: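 Plaque reduction in Vero monolayers: ~100 pfu HSV1 pre-mixed 10 min at 37 °C with acetylated/amidated peptides in 0.5% FCS medium, inoculated 60–80 min, then carboxymethylcellulose overlay for 22 or 40 h. Plaques counted after fixing and carbol fuchsin staining; IC50 from % of control versus peptide concentration.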

[2] = tested on: HIV-1 111B; test: HIV-1 111B in C8166 T-cells, syncytia and gp120 ELISA; type: cell-based, Human Immunodeficiency Virus; settings: 5 days, read-out: IC50 for inhibiting HIV-1 growth
Protocol: Peptides (prepared as described previously) were diluted in 50 μl aliquots and mixed with T-cells (C8166) at 40,000 cells per well. Next HIV-1 111B was added at a multiplicity of infection (MOI) of 0.01, and the mixture incubated for 5 days at 37° C. Syncytia formation was assessed visually using an inverting microscope, and viral gp120 levels in supernatants assessed by a gp120 ELISA using GNA for antigen capture. 96-well plates coated with 50 ul GNA (Galanthus nivalis) were washed, then treated with 100 μl RPMI (10% foetal calf serum) and left for one hour. After further washing, 25 μl test sample supernatants were added to wells, along with dilutions of infected control samples. After lysis by 3 hr treatment with 0.5% Empigen (detergent used to lyse virus) to all wells, and washing, 50 μl of human anti-HIV sera was added, and plates incubated overnight. After further washing, 50 μl of a 1000× dilution of anti-human Ig peroxidase conjugate was added, and plates incubated at 37° C. for 90 min. After a final wash, 50 ul peroxidase substrate was added to each well, and plates incubated for 10-30 min. Reaction was stopped with 25 μl 2M H2SO4, and A450 measured.

[3] = tested on: HSV2 clinical isolates; type: cell-based, Human herpes simplex virus type 2
Protocol: Plaque assays were performed. The methodology was as described in previous Examples for HSV1 plaque assays (including usage of Vero cells) except HSV2 clinical isolates (provided by Prof. Anthony Hart of Liverpool University) were employed instead.

[4] = tested on: HIV-1; settings: NP2 glioma cells, peptide 0.1 to 10 micromolar
Protocol: The glioma cell line NP2 over-expressing both CD4 and the appropriate co-receptor (CCR5 or CXCR4) were maintained in DMEM supplemented with 10% FCS. 2×10^4 cells were plated per well of a 48-well plate 24 h prior to infection and grown at 37 C. The cells were then washed, and incubated in DMEM/FCS containing peptide concentrations ranging from 0.1 to 10 micromolar, at 37 C for 30 minutes. 200 focus-forming units of HIV-1 stocks were then added to each well, and the cells incubated at 37 C for a further 2 hours. The cells were then washed twice in PBS and fresh medium replaced. After 3 day's growth the cells were fixed in cold methanol:acetone, and stained in situ for expression of HIV-1 p24 using a monoclonal anti-p24 followed by a secondary anti-mouse beta-galactosidase conjugate. Expression was visualised by X-Gal staining and infectious foci enumerated by light-microscopy.

| SMILES | IC50 [1] [µM] | IC50 [3] [µM] | efficacy for reducing HSV1 infectivity (in words) [1] | IC50 [2] [µM] | anti-HIV activity (in words) [4] |
| --- | --- | --- | --- | --- | --- |
| CC(=O)N[C@@H](Cc1c[nH]c2ccccc12)C(=O)N[C@@H](CCCNC(=N)N)C(=O)N[C@@H](CCCCN)C(=O)N[C@@H](Cc1c[nH]c2ccccc12)C(=O)N[C@@H](CCCNC(=N)N)C(=O)N[C@@H](CCCCN)C(=O)N[C@@H](CCCNC(=N)N)C(=O)N[C@@H](Cc1c[nH]c2ccccc12)C(=O)N[C@@H](CCCNC(=N)N)C(=O)N[C@@H](CCCCN)C(=O)N[C@@H](Cc1c[nH]c2ccccc12)C(=O)N[C@@H](CCCNC(=N)N)C(=O)N[C@@H](CCCCN)C(=O)N[C@@H](CCCNC(=N)N)C(N)=O [GIN 32] (Ac-WRKWRKRWRKWRKR-NH2) | 10 | 6.25 | also had efficacy | 7.5 | – |
| CC(=O)N[C@@H](Cc1c[nH]c2ccccc12)C(=O)N[C@@H](CCCNC(=N)N)C(=O)N[C@@H](CCCCN)C(=O)N[C@@H](Cc1c[nH]c2ccccc12)C(=O)N[C@@H](CCCNC(=N)N)C(=O)N[C@@H](CCCCN)C(=O)N[C@@H](CCCNC(=N)N)C(=O)N[C@@H](Cc1c[nH]c2ccccc12)C(=O)N[C@@H](CCCNC(=N)N)C(=O)N[C@@H](CCCCN)C(=O)N[C@@H](Cc1c[nH]c2ccccc12)C(=O)N[C@@H](CCCNC(=N)N)C(=O)N[C@@H](CCCCN)C(=O)N[C@@H](CCCNC(=N)N)C(=O)N[C@@H](Cc1c[nH]c2ccccc12)C(N)=O [MU 59] (Ac-WRKWRKRWRKWRKRW-NH2) | 9.75 | 10 | – | – | – |
| CC(=O)N[C@@H](Cc1c[nH]c2ccccc12)C(=O)N[C@@H](CCCNC(=N)N)C(=O)N[C@@H](CCCCN)C(=O)N[C@@H](Cc1c[nH]c2ccccc12)C(=O)N[C@@H](CCCNC(=N)N)C(=O)N[C@@H](CCCCN)C(=O)N[C@@H](CCCNC(=N)N)C(=O)N[C@@H](Cc1c[nH]c2ccccc12)C(=O)N[C@@H](Cc1c[nH]c2ccccc12)C(=O)N[C@@H](CCCNC(=N)N)C(=O)N[C@@H](Cc1c[nH]c2ccccc12)C(=O)N[C@@H](CCCNC(=N)N)C(=O)N[C@@H](CCCCN)C(=O)N[C@@H](Cc1c[nH]c2ccccc12)C(=O)N[C@@H](CCCNC(=N)N)C(=O)N[C@@H](CCCCN)C(=O)N[C@@H](CCCNC(=N)N)C(=O)N[C@@H](Cc1c[nH]c2ccccc12)C(=O)N[C@@H](Cc1c[nH]c2ccccc12)C(=O)N[C@@H](CCCNC(=N)N)C(N)=O [MU 83] (Ac-WRKWRKRWWRWRKWRKRWWR-NH2) | 2.5 | < 3.3 | – | – | – |
| CC(=O)N[C@@H](CC(C)C)C(=O)N[C@@H](CCCNC(=N)N)C(=O)N[C@@H](CCCCN)C(=O)N[C@@H](CC(C)C)C(=O)N[C@@H](CCCNC(=N)N)C(=O)N[C@@H](CCCCN)C(=O)N[C@@H](CCCNC(=N)N)C(=O)N[C@@H](CC(C)C)C(=O)N[C@@H](CC(C)C)C(=O)N[C@@H](CC(C)C)C(=O)N[C@@H](CCCNC(=N)N)C(=O)N[C@@H](CCCCN)C(=O)N[C@@H](CC(C)C)C(=O)N[C@@H](CCCNC(=N)N)C(=O)N[C@@H](CCCCN)C(=O)N[C@@H](CCCNC(=N)N)C(=O)N[C@@H](CC(C)C)C(=O)N[C@@H](CC(C)C)C(N)=O [GIN 1p] (Ac-LRKLRKRLLLRKLRKRLL-NH2) | – | – | had anti-HSV-1 properties | – | no detectable anti-HIV activity |

Second part, led by results:

| IC50 [1] [µM] | IC50 [3] [µM] | SMILES | efficacy for reducing HSV1 infectivity (in words) [1] | IC50 [2] [µM] | anti-HIV activity (in words) [4] |
| --- | --- | --- | --- | --- | --- |
| 16 | 9 | CC(=O)N[C@@H](Cc1c[nH]c2ccccc12)C(=O)N[C@@H](CCCNC(=N)N)C(=O)N[C@@H](CCCCN)C(=O)N[C@@H](Cc1c[nH]c2ccccc12)C(=O)N[C@@H](CCCNC(=N)N)C(=O)N[C@@H](CCCCN)C(=O)N[C@@H](CCCNC(=N)N)C(=O)N[C@@H](CC(C)C)C(=O)N[C@@H](CC(C)C)C(=O)N[C@@H](CC(C)C)C(=O)N[C@@H](CCCNC(=N)N)C(=O)N[C@@H](CCCCN)C(=O)N[C@@H](CC(C)C)C(=O)N[C@@H](CCCNC(=N)N)C(=O)N[C@@H](CCCCN)C(=O)N[C@@H](CCCNC(=N)N)C(=O)N[C@@H](CC(C)C)C(=O)N[C@@H](CC(C)C)C(N)=O [MU 114] (Ac-WRKWRKRLLLRKLRKRLL-NH2) | – | – | – |
| 12.5 | 6.5 | CC(=O)N[C@@H](CC(C)C)C(=O)N[C@@H](CCCNC(=N)N)C(=O)N[C@@H](CCCCN)C(=O)N[C@@H](CC(C)C)C(=O)N[C@@H](CCCNC(=N)N)C(=O)N[C@@H](CCCCN)C(=O)N[C@@H](CCCNC(=N)N)C(=O)N[C@@H](CC(C)C)C(=O)N[C@@H](CC(C)C)C(=O)N[C@@H](Cc1c[nH]c2ccccc12)C(=O)N[C@@H](CCCNC(=N)N)C(=O)N[C@@H](CCCCN)C(=O)N[C@@H](Cc1c[nH]c2ccccc12)C(=O)N[C@@H](CCCNC(=N)N)C(=O)N[C@@H](CCCCN)C(=O)N[C@@H](CCCNC(=N)N)C(=O)N[C@@H](Cc1c[nH]c2ccccc12)C(=O)N[C@@H](Cc1c[nH]c2ccccc12)C(N)=O [MU 111] (Ac-LRKLRKRLLWRKWRKRWW-NH2) | – | – | – |
